Literature values in patent US20220160648A1, “Composition Comprising Hydrolyzed Collagen and Cannabidiol and Use Thereof” (Inspired Health Products, LLC, priority 2019, published 2022).

Columns and labels:
[1] = ingested, dosages from at least 3 g to as much as 60 g per day
[2] = reported

Compound	effect on sleep [1]	anticonvulsant properties [2]
NCC(=O)O [glycine]	beneficial effect on sleep	–
C=C(C)[C@@H]1CCC(C)=C[C@H]1c1c(O)cc(CCCCC)cc1O [CBD isolate, 2-[(1R,6R)-3-methyl-6-prop-1-en-2-ylcyclohex-2-en-1-yl]-5-pentylbenzene-1,3-diol]	–	did not
